Key:
HSP27 = target: T1, HSP27 (Homo sapiens, UniProt P04792); test: microscale thermophoresis; assay type: binding
T1 construct: gene HSPB1; commercial recombinant human protein; labelled with Monolith RED-NHS
Source text: microscale thermophoresis on HSP27

p38MAPK = target: T2, p38MAPK (Homo sapiens, UniProt Q16539); test: microscale thermophoresis; assay type: binding
T2 construct: gene MAPK14; commercial recombinant human protein; labelled with Monolith RED-NHS
T2 sequence (Q16539 2-360): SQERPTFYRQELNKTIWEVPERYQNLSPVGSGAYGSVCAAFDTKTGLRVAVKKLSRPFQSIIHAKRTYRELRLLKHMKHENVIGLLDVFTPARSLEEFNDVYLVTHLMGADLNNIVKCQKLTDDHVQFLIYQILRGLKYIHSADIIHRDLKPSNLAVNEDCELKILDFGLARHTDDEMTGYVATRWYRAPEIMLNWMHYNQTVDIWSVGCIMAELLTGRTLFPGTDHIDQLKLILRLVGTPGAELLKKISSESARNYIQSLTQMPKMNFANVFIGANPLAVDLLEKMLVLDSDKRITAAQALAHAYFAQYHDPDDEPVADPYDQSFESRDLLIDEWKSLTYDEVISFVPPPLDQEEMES

T1 sequence (P04792 whole entry): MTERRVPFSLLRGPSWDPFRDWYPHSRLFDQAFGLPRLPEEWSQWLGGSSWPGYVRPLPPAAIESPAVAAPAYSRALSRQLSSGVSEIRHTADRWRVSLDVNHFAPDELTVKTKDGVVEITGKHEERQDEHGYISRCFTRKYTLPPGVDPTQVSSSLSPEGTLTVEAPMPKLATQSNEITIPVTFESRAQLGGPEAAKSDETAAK

Row | Kd (HSP27) [µM] | Kd (p38MAPK) [µM] | SMILES
1 | 3.76 | 1.27 | C[C@@H]1O[C@@H](OC[C@H]2O[C@@H](Oc3c(-c4ccc(O)c(O)c4)oc4cc(O)cc(O)c4c3=O)[C@H](O)[C@@H](O)[C@@H]2O)[C@H](O)[C@H](O)[C@H]1O [Rutin]
2 | 4.47 | 1.4 | C[C@@H]1O[C@@H](OC[C@H]2O[C@@H](Oc3c(-c4ccc(O)cc4)oc4cc(O)cc(O)c4c3=O)[C@H](O)[C@@H](O)[C@@H]2O)[C@H](O)[C@H](O)[C@H]1O [Nicotiflorin]
3 | 0.915 |  | C[S+]([O-])c1ccc(-c2nc(-c3ccncc3)c(-c3ccc(F)cc3)[nH]2)cc1 (stereo not shown) [SB203580]
4 | 3.64 | 1.71 | O=C(/C=C/c1ccc(O)c(O)c1)O[C@@H]1[C@H](O)C[C@@](O)(C(=O)O)C[C@H]1OC(=O)/C=C/c1ccc(O)c(O)c1 [4,5-Dicqa]
